The values below come from patent US20240199558A1, “2,4,6-TRISUBSTITUTED 1,3,5-TRIAZINES AS MODULATORS OF CX3CR1” (ASTRAZENECA AB, priority 2022, published 2024).

For assay [1], the target named is T1, CX3CR1 (Homo sapiens (Human), UniProt P49238). The assay is described as follows: hCX3CR1 [3H]-AZD8797 competitive binding assay (filter). The conditions noted are these: CHO-hCX3CR1 membranes, 2 nM [3H]-AZD8797. The method in brief: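 CHO-hCX3CR1 membranes (9 μg/well) were incubated 2 h at room temperature with 2 nM [3H]-AZD8797 and varying competitor concentrations. Buffer: 25 mM HEPES pH 7.4, 10 mM MgCl2, 1 mM CaCl2, 0.5% BSA, 1% DMSO. Bound ligand was collected by vacuum filtration, washed in ice-cold buffer with 500 mM NaCl, and counted by scintillation.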
T1 sequence (P49238 whole entry): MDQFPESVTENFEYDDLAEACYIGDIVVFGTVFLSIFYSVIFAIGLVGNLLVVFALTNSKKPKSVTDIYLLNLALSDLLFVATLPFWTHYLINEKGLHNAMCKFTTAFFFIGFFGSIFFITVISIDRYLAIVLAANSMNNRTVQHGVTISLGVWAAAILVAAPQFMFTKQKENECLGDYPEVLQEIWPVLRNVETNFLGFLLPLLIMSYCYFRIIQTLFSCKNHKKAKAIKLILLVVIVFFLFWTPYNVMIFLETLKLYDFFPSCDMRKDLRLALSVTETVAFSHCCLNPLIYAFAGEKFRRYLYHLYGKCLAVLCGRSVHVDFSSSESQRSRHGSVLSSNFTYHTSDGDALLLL

Assay [2] has as its target T1, CX3CR1. The assay is described as follows: PathHunter β-arrestin recruitment assay. The format is cell-based. As to conditions: CHO-K1 CX3CR1 β-Arrestin cells, with CX3CL1. As for the experimental part: PathHunter β-Arrestin Recruitment Assay
β-Arrestin recruitment was measured using the PathHunter® eXpress enzyme fragment complementation assay (DiscoverX #93-0956E2). 3500 CHO-K1 CX3CR1 β-Arrestin cells/well in Opti-MEM were incubated together with different concentrations of CX3CL1 and antagonistic compound in a Greiner tissue culture treated flat-bottom 384-well plate. After 90 min of incubation at 37° C., the detection reagent supplied in the kit was added and incubation continued for 1 h at room temperature, before reading the luminescence with a Victor2 luminescence plate reader (PerkinElmer). The final DMSO concentration was held constant at 1%.
(In general: Arrestin recruitment assays detect the binding of arrestin to an activated receptor.)

The target in assay [3] is T1, CX3CR1. The experiment in a line: CX3CR1-dependent cell adhesion to recombinant CX3CL1 in human whole blood under flow. Format: cell-based. As to conditions: recombinant full-length CX3CL1. As for the experimental part:
(§1) Adhesion of cells to recombinant full-length human CX3CL1 was monitored under physiological flow using a Cellix VenaFlux microfluidics platform with connected fluorescent microscope and camera, and using Vena8 Fluoro+ Biochips (Cellix) pre-coated with anti-His monoclonal antibody (25 μg/mL; R&D Systems) and His-tagged full-length CX3CL1 (15 μg/mL; R&D Systems).
CX3CR1-Dependent Cell Adhesion to Recombinant CX3CL1 in Human Whole Blood Under Flow
Human whole blood from healthy volunteers was collected using heparin as anti-coagulant. […] Compound stocks or DMSO vehicle were added to 0.5 or 1.0 ml aliquots of blood such that the final concentration of DMSO was 0.1%, corresponding to a 1000-fold dilution of compound stock. Blood was pre-incubated with compound at room temperature for 60 minutes with gentle shaking. DiOC6 (Invitrogen, 5 μM) or Hoechst 33342 (Invitrogen, 300 μM) dye was subsequently added to fluorescently label cells and enable their detection during the flow adhesion assay. To monitor adhesion, blood was allowed to flow through the channels of a Vena8 Fluoro+ biochip at 2.25 dynes per cm^2 for 3-6 minutes prior to capturing images for quantification. Fluorescent cells adhering to the channels were counted and the mean and/or total count across five to six images in each channel were used for calculating concentration-response curves.

Assay [4] has as its target T1, CX3CR1. The assay is described as follows: hCX3CR1 [125I]-CX3CL1 displacement binding (SPA). The conditions noted are these: CHO-hCX3CR1 membranes, [125I]-CX3CL1, SPA beads. The method in brief: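 SPA competition binding on CHO membranes expressing human CX3CR1, with […] [125I]-CX3CL1 and varying competitor concentrations, WGA PVT beads, 50 mM HEPES pH 7.4, 10 mM MgCl2, 1 mM EDTA, 0.1% gelatin, 1% DMSO. Incubated 20 h at room temperature; bound radioactivity counted.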

For assay [5], the target named is T1, CX3CR1. The assay is described as follows: Flow adhesion for human B-lymphocyte cell line RPMI-8226. Format: cell-based. As to conditions: RPMI-8226 cells under flow, recombinant full-length CX3CL1. Here is the method:
as §1
Flow Adhesion for Human B-Lymphocyte Cell Line RPMI-8226
Cells were cultured in RPMI 1640 medium with GlutaMAX and 20% FBS (HyClone, Perbio). Before each experiment, cells were centrifuged at 320 g and resuspended to 5×10^6 cells per ml in RPMI 1640 with 1% FBS. Cells were pre-incubated for 15 minutes at room temperature with CX3CR1 antagonist in an 8-step 3-fold dilution series starting at 3.3 μM. DMSO concentration was kept constant for all antagonist concentrations at 0.1%. Cells were pumped through the channels of the Vena8 Fluoro+ biochip at 0.5 dynes per cm2 for 3 m prior to capturing microscope images for quantification. Cells adhering to channels were counted and the mean values across five images in each channel were used for calculating the concentration-response curves.

Take `COc1ccc([C@H](C)Cc2nc(N[C@@H](CO)CC(C)C)nc(NS(C)(=O)=O)n2)c(F)n1` (single isomer, unassigned) [Example 85, N-(4-((R*)-2-(2-Fluoro-6-methoxypyridin-3-yl)propyl)-6-(((R)-1-hydroxy-4-methylpentan-2-yl)amino)-1,3,5-triazin-2-yl)methanesulfonamide]: the figures for the half-maximal inhibitory concentration (IC50) at CX3CR1 [1] and on CX3CR1 [3] were 18 nM and 691 nM, respectively. For the same molecule, the EC50 on CX3CR1 [2] was 50 nM.
As for `CC(C)C[C@H](CO)Nc1nc(C[C@@H](C)c2cccc(F)c2F)nc(NS(C)(=O)=O)n1` (single isomer, unassigned) [Example 144, N-(4-((R*)-2-(2,3-Difluorophenyl)propyl)-6-(((R)-1-hydroxy-4-methylpentan-2-yl)amino)-1,3,5-triazin-2-yl)methanesulfonamide], the IC50 at CX3CR1 [1] is 13 nM; at CX3CR1 [4], 104 nM; on CX3CR1 [3] it was 150 nM; on CX3CR1 [5], 6 nM. For the same molecule, the 50% effective concentration (EC50) on CX3CR1 [2] is 43 nM.
As for `COc1cc(F)c([C@H](C)Cc2nc(N[C@@H](CO)CC(C)C)nc(NS(C)(=O)=O)n2)cn1` (single isomer, unassigned) [Example 46, N-(4-((R*)-2-(4-Fluoro-6-methoxypyridin-3-yl)propyl)-6-(((R)-1-hydroxy-4-methylpentan-2-yl)amino)-1,3,5-triazin-2-yl)methanesulfonamide], the IC50 at CX3CR1 [1] came out at 52 nM; on CX3CR1 [3] it was 1400 nM. Besides, the EC50 on CX3CR1 [2] was determined as 100 nM.
Regarding `COc1ncc([C@H](C)Cc2nc(N[C@@H](CO)CC(C)C)nc(NS(C)(=O)=O)n2)cc1F` (single isomer, unassigned) [Example 7, N-(4-((R*)-2-(5-Fluoro-6-methoxypyridin-3-yl)propyl)-6-(((R)-1-hydroxy-4-methylpentan-2-yl)amino)-1,3,5-triazin-2-yl)methanesulfonamide], the 50% inhibitory concentration (IC50) is 55 nM on CX3CR1 [1], over 10000 nM at CX3CR1 [4], 2460 nM at CX3CR1 [3] and 128 nM on CX3CR1 [5]. Further, a half-maximal effect on CX3CR1 [2] (EC50) was put at 400 nM.

For orientation: IC50 means the concentration that gives 50% inhibition. For orientation: EC50 means the concentration that produces a half-maximal response. A low value points to higher potency in that assay.
